Laboratory results reported in patent US6683063B2, “Prevention and treatment of pulmonary bacterial infection or symptomatic pulmonary exposure to endotoxin by inhalation of antiendotoxin drugs” (Eisai Co., Ltd., priority 1995, dated 2004).

Tested on: LPS-induced TNF-α in human whole blood
Experiment: Persistence of compounds in human whole blood (preincubation, then LPS challenge, cytokine assay)
Assay type: cell-based
Conditions: average of 7 separate experiments in triplicate, FIG. 3
Experimental: FIG. 2 depicts the general scheme used to analyze antagonistic efficacy of drug after incubation in whole blood for various times.
Although some of the compounds of this invention are not rapidly removed from the circulation, their activity diminishes with a half-life of 1-3 hours. To maintain antagonistic efficacy, this rapid deactivation may require continuous administration. The study of this deactivation has led to the development of an assay to measure in vitro deactivation of drugs in human whole blood. This is done by preincubating lipid A antagonists with blood for various periods of time followed by addition of the LPS “challenge,” as is described above, incubation for three hours, and assay for released cytokines.

## CCCCCCCCCCCC(=O)CC(=O)N[C@H]1[C@@H](OP(=O)(O)O)OC(CO[C@@H]2O[C@H](COC)[C@@H](OP(=O)(O)O)C(OCCC(CCCCCCC)OC(=O)CCC/C=C/C(C)CCCC)[C@H]2NC(=O)CC(=O)CCCCCCCCCCC)[C@@H](O)[C@@H]1OCC[C@H](O)CCCCCCC (stereo partly shown) [Compound B531]
  persistence of LPS-antagonist activity (inhibition of TNF-α) versus time of preincubation: loses activity with increasing time of preincubation
